Test [1] concerns the target T1, A. baumannii PBP1a (Acinetobacter baumannii, UniProt A0ABX6CK30).
T1 sequence (A0ABX6CK30 1-851): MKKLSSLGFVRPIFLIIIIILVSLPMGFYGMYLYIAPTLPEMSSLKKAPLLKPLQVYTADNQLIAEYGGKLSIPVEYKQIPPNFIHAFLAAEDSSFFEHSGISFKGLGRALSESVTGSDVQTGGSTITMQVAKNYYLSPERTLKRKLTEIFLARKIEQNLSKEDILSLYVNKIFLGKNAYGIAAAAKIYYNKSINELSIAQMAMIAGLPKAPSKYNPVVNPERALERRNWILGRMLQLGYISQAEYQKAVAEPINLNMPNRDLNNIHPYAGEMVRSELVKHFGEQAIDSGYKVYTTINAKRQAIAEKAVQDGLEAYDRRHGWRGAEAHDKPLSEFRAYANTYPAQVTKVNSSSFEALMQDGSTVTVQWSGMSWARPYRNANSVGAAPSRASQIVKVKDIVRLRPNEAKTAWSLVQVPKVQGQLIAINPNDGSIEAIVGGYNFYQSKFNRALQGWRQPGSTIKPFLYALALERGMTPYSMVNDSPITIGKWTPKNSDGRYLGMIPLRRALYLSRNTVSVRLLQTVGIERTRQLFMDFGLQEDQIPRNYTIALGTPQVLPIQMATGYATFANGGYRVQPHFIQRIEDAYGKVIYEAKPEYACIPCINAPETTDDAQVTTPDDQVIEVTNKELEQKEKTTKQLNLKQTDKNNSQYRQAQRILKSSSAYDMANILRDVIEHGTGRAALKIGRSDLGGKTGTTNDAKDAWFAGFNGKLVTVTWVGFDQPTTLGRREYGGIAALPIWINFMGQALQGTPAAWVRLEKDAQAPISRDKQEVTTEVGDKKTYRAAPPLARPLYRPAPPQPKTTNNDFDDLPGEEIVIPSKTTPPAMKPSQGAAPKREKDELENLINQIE
Briefly: Bocillin-FL competition binding via gel filtration, A. baumannii PBP1a. The conditions noted are these: competition binding assay using Bocillin-FL via gel filtration; read-out: A. baumannii PBP1a Potency. In a few lines:
(§1)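 Enzyme pre-incubated with increasing inhibitor concentrations, then Bocillin-FL added for 15 min further incubation. Bocillin-FL-bound PBP separated by gel filtration and fluorescence read. EC50 from fitting fraction PBP bound vs inhibitor concentration to a Hill-type equation (ymin, ymax, n).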
(SEC sorts molecules by how far they enter the pores of the column.)

The target of test [2] is A. baumannii PBP2 (Acinetobacter baumannii, UniProt D0C8Z9). The test is described as follows: Bocillin-FL competition binding via gel filtration, A. baumannii PBP2. In a few lines:
as §1

Test [3] relates to P. aeruginosa ATCC 27853. Briefly: microbe, parasite or virus in culture. Type of test: cell-based. The conditions noted are these: Pseudomonas aeruginosa, ATCC27853, read-out: Minimum inhibitory concentration, P. aeruginosa ATCC 27853.
The subject of test [4] is A. baumannii ATCC 17978. The test is described as follows: microbe, parasite or virus in culture. It counts as cell-based. The following applies: Acinetobacter baumannii, ATCC17978, read-out: MIC, A. baumannii ATCC 17978.
Test [5] concerns A. baumannii ATCC 19606. Briefly: microbe, parasite or virus in culture. Type of test: cell-based. The conditions noted are these: Acinetobacter baumannii, ATCC19606, read-out: MIC, A. baumannii ATCC 19606.
Test [6] relates to P. aeruginosa (ΔmexAB-oprM). The test is described as follows: Broth microdilution MIC in iron-depleted CAMHB (IDM). Type of test: cell-based. The conditions noted are these: Pseudomonas aeruginosa; iron-depleted CAMHB (IDM); […]; read-out: Minimum inhibitory concentration, P. aeruginosa ΔmexAB-oprM. (In general: Dilution methods test growth across graded concentrations, often in twofold steps.)

The test system of test [7] is P. aeruginosa CDC-0054. The test is described as follows: microbe, parasite or virus in culture. It counts as cell-based. The following applies: Pseudomonas aeruginosa, CDC0054, read-out: Minimum inhibitory concentration, P. aeruginosa CDC-0054.
Test [8] relates to A. baumannii 1258916. Briefly: microbe, parasite or virus in culture. The conditions noted are these: Acinetobacter baumannii, 1258916, read-out: MIC, A. baumannii 1258916. Type of test: cell-based, Acinetobacter baumannii.
Test [9] relates to A. baumannii CDC-0036. Briefly: microbe, parasite or virus in culture. Type of test: cell-based. The following applies: Acinetobacter baumannii, CDC0036, read-out: MIC, A. baumannii CDC-0036.
For test [10], the system named is A. baumannii CDC-0045. Briefly: microbe, parasite or virus in culture. Type of test: cell-based. The conditions noted are these: Acinetobacter baumannii, CDC0045, read-out: MIC, A. baumannii CDC-0045.
Test [11] relates to A. baumannii CDC-0083. The test is described as follows: microbe, parasite or virus in culture. Type of test: cell-based. The following applies: Acinetobacter baumannii, CDC0083, read-out: MIC, A. baumannii CDC-0083.
Test [12] concerns B. humptydooensis ATCC BAA-2767. Briefly: microbe, parasite or virus in culture. The conditions noted are these: Burkholderia humptydooensis, ATCCBAA2767, read-out: Minimum inhibitory concentration (MIC), B. humptydooensis ATCC BAA-2767. It counts as cell-based.
For test [13], the system named is P. aeruginosa CDC-0110. Briefly: microbe, parasite or virus in culture. It counts as cell-based. The following applies: Pseudomonas aeruginosa, CDC0110, read-out: Minimum inhibitory concentration, P. aeruginosa CDC-0110.

The record followed here is patent US20240270762A1, “PENICILLIN-BINDING PROTEIN INHIBITORS” (priority 2021, published 2024).

Values after ≈ are worked out from the molar mass of the structure shown. Where only a bound is given, the exact number is not on record here.

Sequence of A. baumannii PBP2 (D0C8Z9 whole entry): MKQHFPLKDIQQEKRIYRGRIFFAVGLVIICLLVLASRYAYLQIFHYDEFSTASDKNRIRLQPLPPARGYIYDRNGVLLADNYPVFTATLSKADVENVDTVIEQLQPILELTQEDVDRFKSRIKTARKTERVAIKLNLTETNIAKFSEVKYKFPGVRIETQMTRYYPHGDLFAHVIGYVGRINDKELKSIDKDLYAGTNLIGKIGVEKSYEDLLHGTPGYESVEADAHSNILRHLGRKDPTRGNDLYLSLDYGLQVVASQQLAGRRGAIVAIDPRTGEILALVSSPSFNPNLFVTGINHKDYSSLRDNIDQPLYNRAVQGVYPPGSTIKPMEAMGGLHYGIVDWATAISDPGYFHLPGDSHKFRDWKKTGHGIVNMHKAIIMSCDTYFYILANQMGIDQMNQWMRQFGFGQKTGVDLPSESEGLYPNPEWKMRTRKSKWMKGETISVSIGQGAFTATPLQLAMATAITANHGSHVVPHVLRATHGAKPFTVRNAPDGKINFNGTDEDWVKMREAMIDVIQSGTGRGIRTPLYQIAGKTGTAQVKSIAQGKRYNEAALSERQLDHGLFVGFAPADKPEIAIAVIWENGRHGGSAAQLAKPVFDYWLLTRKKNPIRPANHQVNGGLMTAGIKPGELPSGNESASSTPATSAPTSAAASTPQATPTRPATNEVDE

For the compound `O=C(O)c1c(F)ccc2c1OB(O)[C@@H](NC(=O)C(NC(=O)N1CCN(C3CCN(C(=O)c4cc(O)cc(O)c4)CC3)C(=O)C1=O)c1cc(F)c(O)c(O)c1Cl)C2` (stereo partly drawn) [Example 309, (3R)-3-(2-(2-chloro-5-fluoro-3,4-dihydroxyphenyl)-2-(4-(1-(3,5-dihydroxybenzoyl)piperidin-4-yl)-2,3-dioxopiperazine-1-carboxamido)acetamido)-7-fluoro-2-hydroxy-3,4-dihydro-2H-benzo[e][1,2]oxaborinine-8-carboxylic acid], the EC50 was 10 to 50 µM in [1] and below 10 µM in test [2]. In addition, the MIC in test [3] was 2 to 4 µg/mL (≈ 2.49 to 4.99 µM); in [4] it was below 1 µg/mL; in test [5], below 1 µg/mL; in test [6], below 1 µg/mL; in test [7], below 1 µg/mL; in test [8], below 1 µg/mL. The MIC in [9], in test [10], in [11], in [12] and in test [13] was below 1 µg/mL throughout.
For the compound `O=C(NCCCN1CCN(C(=O)NC(C(=O)N[C@H]2Cc3ccc(F)c(C(=O)O)c3OB2O)c2cc(F)c(O)c(O)c2Cl)C(=O)C1=O)c1c(F)ccc(O)c1Cl` (stereo partly drawn) [Example 414, (3R)-3-(2-(2-chloro-5-fluoro-3,4-dihydroxyphenyl)-2-(4-(3-(2-chloro-6-fluoro-3-hydroxybenzamido)propyl)-2,3-dioxopiperazine-1-carboxamido)acetamido)-7-fluoro-2-hydroxy-3,4-dihydro-2H-benzo[e][1,2]oxaborinine-8-carboxylic acid], the EC50 in test [1] and in test [2] was below 10 µM each time. Further, the MIC in test [3] is below 1 µg/mL; in test [4], below 1 µg/mL; in test [5], below 1 µg/mL; in test [6], below 1 µg/mL; in test [7] it was below 1 µg/mL; in [8], 2 to 4 µg/mL (≈ 2.46 to 4.92 µM). Further, the MIC was 2 to 4 µg/mL (≈ 2.46 to 4.92 µM) in test [9]; 2 to 4 µg/mL (≈ 2.46 to 4.92 µM) in [10]; 2 to 4 µg/mL (≈ 2.46 to 4.92 µM) in test [11]; 2 to 4 µg/mL (≈ 2.46 to 4.92 µM) in test [12]; below 1 µg/mL in test [13].
With `O=C(NCCCN1CCN(C(=O)NC(C(=O)N[C@H]2Cc3ccc(F)c(C(=O)O)c3OB2O)c2cc(F)c(O)c(O)c2Cl)C(=O)C1=O)c1c(F)cncc1Cl` (stereo partly drawn) [Example 403, (3R)-3-(2-(2-chloro-5-fluoro-3,4-dihydroxyphenyl)-2-(4-(3-(3-chloro-5-fluoroisonicotinamido)propyl)-2,3-dioxopiperazine-1-carboxamido)acetamido)-7-fluoro-2-hydroxy-3,4-dihydro-2H-benzo[e][1,2]oxaborinine-8-carboxylic acid], the EC50 in test [1] and in test [2] was 10 to 50 µM each time. Besides, the MIC in test [3] is 2 to 4 µg/mL (≈ 2.51 to 5.02 µM); in test [4], below 1 µg/mL; in test [5], below 1 µg/mL; in test [6], below 1 µg/mL; in test [7] it was below 1 µg/mL; in test [8], 2 to 4 µg/mL (≈ 2.51 to 5.02 µM). Further, the MIC in test [9] was 2 to 4 µg/mL (≈ 2.51 to 5.02 µM); in [10] it was below 1 µg/mL; in test [11], 2 to 4 µg/mL (≈ 2.51 to 5.02 µM); in test [12], 2 to 4 µg/mL (≈ 2.51 to 5.02 µM); in test [13], below 1 µg/mL.
As for `O=C(O)c1c(F)ccc2c1OB(O)[C@@H](NC(=O)C(NC(=O)N1CCN(C3CCN(C(=O)c4cncc(O)c4)CC3)C(=O)C1=O)c1cc(F)c(O)c(O)c1Cl)C2` (stereo partly drawn) [Example 425, (3R)-3-(2-(2-chloro-5-fluoro-3,4-dihydroxyphenyl)-2-(4-(1-(5-hydroxynicotinoyl)piperidin-4-yl)-2,3-dioxopiperazine-1-carboxamido)acetamido)-7-fluoro-2-hydroxy-3,4-dihydro-2H-benzo[e][1,2]oxaborinine-8-carboxylic acid], the EC50 in [1] and in [2] was 10 to 50 µM throughout. The MIC in test [3], in test [4], in test [5], in test [6], in [7] and in test [8] was below 1 µg/mL throughout. The MIC in [9] is below 1 µg/mL; in test [10], below 1 µg/mL; in test [11] it was 8 to 16 µg/mL (≈ 10.2 to 20.3 µM); in test [12], below 1 µg/mL; in [13], below 1 µg/mL.
